Laboratory results from ChEMBL document CHEMBL3871284, “Structure-activity relationship-based screening of antibiotics against Gram-negative Acinetobacter baumannii” (Bioorg Med Chem, 2017).
≈ marks a conversion by molar mass, not a printed value. Calls of active or inactive are those of the source. The rule behind the calls is not given here.

Key:
[1] = tested on: Staphylococcus aureus; assay: Antimicrobial activity against Methicillin-resistant Staphylococcus aureus 3126 after 16 hrs by broth microdilution assay; assay type: functional; conditions: Staphylococcus aureus, 3126, 16 h
[2] = tested on: Escherichia coli; assay: Antimicrobial activity against multidrug resistant Escherichia coli CCARM 1238 after 16 hrs by broth microdilution assay; assay type: functional; conditions: CCARM 1238, 16 h
[3] = tested on: Acinetobacter baumannii; assay: Antimicrobial activity against multidrug resistant Acinetobacter baumannii CCARM 12036 after 16 hrs by broth microdilution assay; assay type: functional; conditions: CCARM 12036, 16 h
[4] = tested on: Pseudomonas aeruginosa; assay: Antimicrobial activity against multidrug resistant Pseudomonas aeruginosa CCARM 2002 after 16 hrs by broth microdilution assay; assay type: functional; conditions: CCARM 2002, 16 h
[5] = tested on: Acinetobacter baumannii; assay: Antimicrobial activity against multidrug resistant Acinetobacter baumannii CCARM 12005 after 16 hrs by broth microdilution assay; assay type: functional; conditions: CCARM 12005, 16 h
[6] = tested on: Pseudomonas aeruginosa; assay: Antimicrobial activity against Pseudomonas aeruginosa KCTC 1637 after 16 hrs by broth microdilution assay; assay type: functional; conditions: KCTC 1637, 16 h
[7] = tested on: Pseudomonas aeruginosa; assay: Antimicrobial activity against multidrug resistant Pseudomonas aeruginosa CCARM 2163 after 16 hrs by broth microdilution assay; assay type: functional; conditions: CCARM 2163, 16 h
[8] = tested on: Staphylococcus aureus; assay: Antimicrobial activity against Methicillin-resistant Staphylococcus aureus isolate 3114 after 16 hrs by broth microdilution assay; assay type: functional; conditions: isolate 3114, 16 h
[9] = Binding affinity to Acinetobacter baumannii His-tagged KAS3 expressed in Escherichia coli BL21(DE3) by tryptophan emission assay
[10] = tested on: Staphylococcus epidermidis; assay: Antimicrobial activity against Staphylococcus epidermidis after 16 hrs by broth microdilution assay; assay type: functional
[11] = tested on: Staphylococcus aureus; assay: Antimicrobial activity against Staphylococcus aureus after 16 hrs by broth microdilution assay; assay type: functional
[12] = tested on: Acinetobacter baumannii; assay: Antimicrobial activity against Acinetobacter baumannii KCTC 2508 after 16 hrs by broth microdilution assay; assay type: functional; conditions: KCTC 2508, 16 h
[13] = tested on: Acinetobacter baumannii; assay: Antimicrobial activity against multidrug resistant Acinetobacter baumannii CCARM 12037 after 16 hrs by broth microdilution assay; assay type: functional; conditions: CCARM 12037, 16 h
[14] = tested on: Escherichia coli; assay: Antimicrobial activity against Escherichia coli KCTC 1682 after 16 hrs by broth microdilution assay; assay type: functional; conditions: KCTC 1682, 16 h
[15] = tested on: Bacillus subtilis; assay: Antimicrobial activity against Bacillus subtilis after 16 hrs by broth microdilution assay; assay type: functional
[16] = tested on: Pseudomonas aeruginosa; assay: Antimicrobial activity against multidrug resistant Pseudomonas aeruginosa CCARM 2095 after 16 hrs by broth microdilution assay; assay type: functional; conditions: CCARM 2095, 16 h
[17] = tested on: Acinetobacter baumannii; assay: Antimicrobial activity against multidrug resistant Acinetobacter baumannii CCARM 12035 after 16 hrs by broth microdilution assay; assay type: functional; conditions: CCARM 12035, 16 h
[18] = tested on: Escherichia coli; assay: Antimicrobial activity against multidrug resistant Escherichia coli CCARM 1229 after 16 hrs by broth microdilution assay; assay type: functional; conditions: CCARM 1229, 16 h
[19] = tested on: RAW264.7; assay: Antiinflammatory activity in mouse RAW264.7 cells assessed as inhibition of LPS-stimulated NO production at 10 to 20 uM after 24 hrs in presence of LPS; assay type: functional, cell-based
[20] = Antiinflammatory activity in mouse RAW264.7 cells assessed as inhibition of LPS-stimulated MIP1 mRNA expression at 10 uM after 3 hrs in presence of LPS by RT-PCR analysis; assay type: functional; conditions: RAW264.7, 3 h
[21] = Antiinflammatory activity in mouse RAW264.7 cells assessed as inhibition of LPS-stimulated TNFalpha mRNA expression at 10 uM after 3 hrs in presence of LPS by RT-PCR analysis; assay type: functional; conditions: RAW264.7, 3 h
[22] = Antiinflammatory activity in mouse RAW264.7 cells assessed as inhibition of LPS-stimulated MIP2 mRNA expression at 10 uM after 3 hrs in presence of LPS by RT-PCR analysis; assay type: functional; conditions: RAW264.7, 3 h
[23] = Antiinflammatory activity in mouse RAW264.7 cells assessed as inhibition of LPS-stimulated IL6 mRNA expression at 10 uM after 3 hrs in presence of LPS by RT-PCR analysis; assay type: functional; conditions: RAW264.7, 3 h
[24] = Antiinflammatory activity in mouse RAW264.7 cells assessed as inhibition of LPS-stimulated iNOS mRNA expression at 10 uM after 3 hrs in presence of LPS by RT-PCR analysis; assay type: functional; conditions: RAW264.7, 3 h
[25] = Binding affinity to Acinetobacter baumannii His-tagged KAS3 expressed in Escherichia coli BL21(DE3) by isothermal titration calorimetry assay
[26] = Antiinflammatory activity in mouse RAW264.7 cells assessed as inhibition of LPS-stimulated IL1beta mRNA expression at 10 uM after 3 hrs in presence of LPS by RT-PCR analysis; assay type: functional; conditions: RAW264.7, 3 h

| Structure (SMILES) | MIC [1] | MIC [2] | MIC [3] | MIC [4] | MIC [5] | MIC [6] | MIC [7] | MIC [8] | Kd [9] | MIC [10] | MIC [11] | MIC [12] | MIC [13] | MIC [14] | MIC [15] | MIC [16] | MIC [17] | MIC [18] | further results |
| --- | --- | --- | --- | --- | --- | --- | --- | --- | --- | --- | --- | --- | --- | --- | --- | --- | --- | --- | --- |
| Oc1cccc(Br)c1/C=N/NCc1cccc(C(F)(F)F)c1 | > 32 mg/L | > 32 mg/L | > 32 mg/L | > 32 mg/L | > 32 mg/L | > 32 mg/L | > 32 mg/L | > 32 mg/L | > 100 µM | > 32 mg/L | > 32 mg/L | > 32 mg/L | > 32 mg/L | > 32 mg/L | > 32 mg/L | > 32 mg/L | > 32 mg/L | > 32 mg/L |  |
| Oc1ccc(/C=N/NCc2ccc(C(F)(F)F)cc2)c(O)c1 | 8 mg/L (≈ 25.8 µM) | > 32 mg/L | 16 mg/L (≈ 51.6 µM) | > 32 mg/L | 8 mg/L (≈ 25.8 µM) | > 32 mg/L | > 32 mg/L | 4 mg/L (≈ 12.9 µM) | 0.596 µM | 16 mg/L (≈ 51.6 µM) | 2 mg/L (≈ 6.45 µM) | 16 mg/L (≈ 51.6 µM) | 16 mg/L (≈ 51.6 µM) | > 32 mg/L | 4 mg/L (≈ 12.9 µM) | > 32 mg/L | 16 mg/L (≈ 51.6 µM) | > 32 mg/L |  |
| COc1ccc(/C=N/NCc2ccc(C(F)(F)F)cc2)c(O)c1 | > 32 mg/L | > 32 mg/L | > 32 mg/L | > 32 mg/L | > 32 mg/L | > 32 mg/L | > 32 mg/L | > 32 mg/L | 22 µM | > 32 mg/L | > 32 mg/L | > 32 mg/L | > 32 mg/L | > 32 mg/L | > 32 mg/L | > 32 mg/L | > 32 mg/L | > 32 mg/L |  |
| COc1ccc(O)c(/C=N/NCc2cccc(C(F)(F)F)c2)c1 | > 32 mg/L | > 32 mg/L | > 32 mg/L | > 32 mg/L | > 32 mg/L | > 32 mg/L | > 32 mg/L | > 32 mg/L | > 100 µM | > 32 mg/L | > 32 mg/L | > 32 mg/L | > 32 mg/L | > 32 mg/L | > 32 mg/L | > 32 mg/L | > 32 mg/L | > 32 mg/L |  |
| Oc1ccc(/C=N/NCc2cccc(C(F)(F)F)c2)cc1 | > 32 mg/L | > 32 mg/L | 16 mg/L (≈ 54.4 µM) | > 32 mg/L | 16 mg/L (≈ 54.4 µM) | 32 mg/L (≈ 109 µM) | > 32 mg/L | > 32 mg/L | 0.22 µM | 32 mg/L (≈ 109 µM) | 32 mg/L (≈ 109 µM) | 8 mg/L (≈ 27.2 µM) | 16 mg/L (≈ 54.4 µM) | 32 mg/L (≈ 109 µM) | 32 mg/L (≈ 109 µM) | > 32 mg/L | 16 mg/L (≈ 54.4 µM) | > 32 mg/L | inhibition [19]: Active; inhibition at 10 µM [20]: > 70%; inhibition at 10 µM [21]: > 70%; inhibition at 10 µM [22]: > 70%; inhibition at 10 µM [23]: 50.6%; inhibition at 10 µM [24]: > 70%; Kd [25]: 0.127 µM; inhibition at 10 µM [26]: 63.5% |
| COc1ccccc1/C=N/NCc1ccc(C(=O)O)cc1 | > 32 mg/L | > 32 mg/L | > 32 mg/L | > 32 mg/L | > 32 mg/L | > 32 mg/L | > 32 mg/L | > 32 mg/L | 20.2 µM | > 32 mg/L | > 32 mg/L | > 32 mg/L | > 32 mg/L | > 32 mg/L | > 32 mg/L | > 32 mg/L | > 32 mg/L | > 32 mg/L |  |
